Test results published in article PMC12526004, “Tiliroside Suppresses Uric Acid Production in Hepatocytes and Attenuates Purine-Induced Hyperuricemia in Male ICR Mice” (Molecules, 2025).
pIC50: −log10 of the molar value.

How the values were obtained:
AML12 hepatocytes = assay: UA production by AML12 cells stimulated with UA precursors; format: cell-based; details: for maximum reduction of UA production: guanosine + inosine (GI mixture) 100 µM each, 2 h, vs control (0 µM); for UA production: UA precursor xanthine
Protocol: AML12 hepatocytes used in this study were acquired from ATCC (CRL-2254), Manassas, VA, USA. AML12 cells were maintained in DMEM/F-12 (Life Technologies, Grand Island, NY, USA) supplemented with 10% (v/v) fetal bovine serum (FBS; Hyclone, Logan, UT, USA), recombinant human insulin (5 µg/mL), human transferrin (5 µg/mL), and dexamethasone (40 ng/mL), each obtained from FUJIFILM Wako, as well as selenium (3 ng/mL, Sigma-Aldrich) and penicillin–streptomycin mixed solution (100 U/mL penicillin and 100 µg/mL streptomycin, Nacalai Tesque), under a humidified atmosphere of 5% CO2 at 37 °C. Culture of AML12 hepatocytes and measurement of UA production were conducted following a previously reported protocol.Cells were seeded at a density of 1.0 × 10^5 cells per well in 24-well plates and cultured for 72 h in complete medium, followed by 24 h in serum-free DMEM/F-12. After serum deprivation, cells were rinsed once with calcium- and magnesium-free phosphate-buffered saline [PBS (–)] and incubated in 200 µL of balanced salt solution (BSS) containing […], 5 mM KCl, 1 mM MgCl2, 0.8 mM CaCl2, 25 mM NaHCO3, 1 mM NaH2PO4, 10 mM HEPES, and 5 mM glucose. […] The final concentration of DMSO in all samples was adjusted to 0.15%. After a 2-h incubation, 200 µL of the reaction mixture was collected for UA quantification. The UA concentration in BSS was used as an indicator of UA production. Subsequently, cells were washed with PBS (–) and lysed in 300 µL of buffer containing 50 mM Tris and 1 mM sodium phosphate (pH 7.5). Lysates were sonicated and centrifuged (12,000× g, 5 min, 4 °C), and the supernatants were used for protein quantification using the Pierce™ BCA Protein Assay Kit (Thermo Fisher Scientific Inc., Waltham, MA, USA). UA levels were measured using the uricase-based Uric Acid C-Test Wako (FUJIFILM Wako). UA production was expressed as nanomoles per 2 h per milligram of cellular protein (nmol/2 h/mg protein).

[1] = system: mice with purine-induced hyperuricemia; assay: Hepatic UA level in hyperuricemic model mice; format: in vivo, male ICR mice; details: three days; for Hepatic UA Level: mean ± SEM
Protocol: The antihyperuricemic effect of tiliroside was evaluated using mice with purine-induced hyperuricemia, following a previously described procedure. […] The test compounds were suspended in 0.2 mL of 0.5% CMC-Na based on the average body weight of each group. The actual volume administered was adjusted according to the individual body weight of each mouse. Prior to each administration, the mice were fasted for four hours. The negative and hyperuricemic control groups received the vehicle (0.5% CMC-Na) alone. […] GMP and IMP were dissolved in 0.2 mL of PBS (–) based on the average body weight of all mice. The injection volume was similarly adjusted according to each mouse’s body weight. These injections were performed one hour after the final oral administration of the test compounds or vehicle. The negative control group received PBS (–) alone. […] The liver and kidneys were then excised. Blood samples were centrifuged at 5000× g for 10 min at 4 °C to obtain plasma, which was stored at −80 °C until analysis. Liver samples preparation was performed according to the methods previously described. Each portion of the liver tissue was processed for a specific analysis. One portion was homogenized in ice-cold 100 mM Tris-HCl buffer (pH 7.5), followed by sonication and centrifugation at 10,000× g for 5 min at 4 °C. The resulting supernatant was collected for the determination of UA levels. Another portion was treated similarly using Tris-HCl buffer containing 1 mM EDTA-2Na, and the supernatant was used to measure XO activity. The final portion was homogenized in ice-cold RIPA lysis buffer (Nacalai Tesque) and centrifuged under the same conditions, and the resulting supernatant was used for Western blot analysis. UA concentrations in plasma and liver homogenates were determined using the uricase-based Uric Acid C-Test Wako. Protein concentrations in the liver samples were measured with the Pierce™ BCA Protein Assay Kit. Liver UA levels were expressed as milligrams per gram of liver protein (mg/g protein).

ABCC4 = assay: Renal mRNA expression, real-time quantitative PCR; format: in vivo, male ICR mice; details: 300 mg/kg oral, three days
Protocol: (§1) The antihyperuricemic effect of tiliroside was evaluated using mice with purine-induced hyperuricemia, following a previously described procedure. […] The test compounds were suspended in 0.2 mL of 0.5% CMC-Na based on the average body weight of each group. The actual volume administered was adjusted according to the individual body weight of each mouse. Prior to each administration, the mice were fasted for four hours. The negative and hyperuricemic control groups received the vehicle (0.5% CMC-Na) alone. […] GMP and IMP were dissolved in 0.2 mL of PBS (–) based on the average body weight of all mice. The injection volume was similarly adjusted according to each mouse’s body weight. These injections were performed one hour after the final oral administration of the test compounds or vehicle. The negative control group received PBS (–) alone. […] The liver and kidneys were then excised. Blood samples were centrifuged at 5000× g for 10 min at 4 °C to obtain plasma, which was stored at −80 °C until analysis. To assess renal gene expression, four mice per group were selected based on plasma UA levels approximating the group mean. Total RNA was extracted from kidney tissues of the negative control, hyperuricemic model, allopurinol-treated, and high-dose tiliroside-treated groups using the Trizol-chloroform method (Thermo Fisher Scientific). Reverse transcription was performed with 1 µg of RNA using iScript reverse transcriptase (Bio-Rad, Hercules, CA, USA). Quantitative PCR was conducted using the MyiQ2 real-time PCR system (Bio-Rad), with GAPDH as the reference gene.

ABCG2 = assay: Renal mRNA expression, real-time quantitative PCR; format: in vivo, male ICR mice; details: 300 mg/kg oral, three days
Protocol: as §1

GLUT9 = assay: Renal mRNA expression, real-time quantitative PCR; format: in vivo, male ICR mice; details: 300 mg/kg oral, three days
Protocol: as §1

XO = details: read-out: IC50, XO inhibition (previous report); cited from earlier work
[2] = set-up: method as in PMID 39830960; details: cited from earlier work

| Compound | maximum reduction of UA production (AML12 hepatocytes; 1 µM) | Hepatic UA Level ([1]; 10 mg/kg body weight oral) | UA production (AML12 hepatocytes; 10 µM) | UA production (AML12 hepatocytes; 30 µM) | UA production (AML12 hepatocytes; 100 µM) | maximum reduction of UA production (AML12 hepatocytes; 100 µM) | Hepatic UA Level ([1]; 50 mg/kg oral) | Hepatic UA Level ([1]; 100 mg/kg oral) | lowering of hepatic UA level ([1]; 300 mg/kg oral, hyperuricemic mice) | Hepatic UA Level ([1]; 300 mg/kg oral) | renal ABCC4 mRNA expression (ABCC4) | renal ABCG2 mRNA expression (ABCG2) | renal GLUT9 mRNA expression (GLUT9) | pIC50 (XO) | toxicity and mutagenicity [2] |
| --- | --- | --- | --- | --- | --- | --- | --- | --- | --- | --- | --- | --- | --- | --- | --- |
| Oc1ncnc2[nH]ncc12 [Allopurinol, allopurinol, reference compound] | approximately 94.6% | 0.60 ± 0.03 mg/g Protein |  |  |  |  |  |  |  |  |  |  |  |  |  |
| O=C(/C=C/c1ccc(O)cc1)OC[C@H]1O[C@@H](Oc2c(-c3ccc(O)cc3)oc3cc(O)cc(O)c3c2=O)[C@H](O)[C@@H](O)[C@@H]1O [Tiliroside, kaempferol-3-O-(6′′-p-coumaroyl)-glucoside] |  |  | 82.7 ± 2.4 nmol/2 h/mg protein | 45.4 ± 1.8 nmol/2 h/mg protein | 28.0 ± 1.2 nmol/2 h/mg protein | approximately 86.6% | 1.30 ± 0.16 mg/g Protein | 1.13 ± 0.16 mg/g Protein | ~55% | 0.79 ± 0.11 mg/g Protein | did not affect | did not affect | did not affect | < 4.00 | non-toxic and non-mutagenic |
